# Assay results as given in PMC10981743, “Network pharmacology, computational biology integrated surface plasmon resonance technology reveals the mechanism of ellagic acid against rotavirus” (Scientific Reports, 2024).
# Target: T1, TLR4; Recombinant human TLR4 protein (Active) (Homo sapiens, UniProt O00206)
# T1 construct: commercial recombinant protein (Abcam, 'Active'); immobilised on CM5 chip by amine coupling
# Assay: surface plasmon resonance (Biacore T200, TLR4 immobilised on CM5 chip)
# Assay type: binding
# Description: surface plasmon resonance (Biacore T200, TLR4 immobilised on CM5 chip) on TLR4; Recombinant human TLR4 protein (Active)
# T1 sequence (O00206 24-631 limits assumed): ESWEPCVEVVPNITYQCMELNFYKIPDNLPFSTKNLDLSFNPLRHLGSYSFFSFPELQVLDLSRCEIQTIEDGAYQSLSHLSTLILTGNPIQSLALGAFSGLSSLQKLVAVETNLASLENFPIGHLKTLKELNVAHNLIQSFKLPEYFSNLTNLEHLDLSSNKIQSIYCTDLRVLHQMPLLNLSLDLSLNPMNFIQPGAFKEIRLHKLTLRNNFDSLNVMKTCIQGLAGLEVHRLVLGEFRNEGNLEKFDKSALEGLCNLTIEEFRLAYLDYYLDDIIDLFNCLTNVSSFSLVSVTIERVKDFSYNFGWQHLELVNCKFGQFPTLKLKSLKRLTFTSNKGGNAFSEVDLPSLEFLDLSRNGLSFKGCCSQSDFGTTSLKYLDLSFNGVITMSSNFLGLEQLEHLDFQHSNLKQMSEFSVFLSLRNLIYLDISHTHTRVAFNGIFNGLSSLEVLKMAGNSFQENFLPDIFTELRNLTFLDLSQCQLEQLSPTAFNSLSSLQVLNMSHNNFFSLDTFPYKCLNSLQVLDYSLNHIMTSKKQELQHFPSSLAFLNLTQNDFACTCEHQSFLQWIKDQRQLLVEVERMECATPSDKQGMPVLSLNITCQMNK
smiles,measurement,value
O=c1oc2c(O)c(O)cc3c(=O)oc4c(O)c(O)cc1c4c23 [Ellagic acid],Kd,19.2 µM
